# Results published in the supplement of paper PMC8882468.
# Tested on: HCI-001 (organoid from a triple-negative breast cancer xenograft)
# Experiment: CTG-3D luminescence at 96 h relative to day-0 seeding control (ratio to day 0); higher = more growth / less cytotoxicity; PDxO 3D drug screen, 96 h, CTG-3D normalised to day-0 seeding control.
# Conditions: 0.00025 µM; days in culture: 240
row,Compound,CTG-3D luminescence at 96 h
1,CC(C)(C(=O)NCC(F)(F)C(F)(F)F)C(=O)N[C@@H]1C(=O)Nc2ccccc2-c2ccccc21,1.17
2,CCN(c1cc(C#CCN2CCOCC2)cc(C(=O)NCc2c(C)cc(C)[nH]c2=O)c1C)[C@H]1CC[C@H](N(C)CCOC)CC1,1.2
3,NC(=O)Nc1cc(-c2cccc(F)c2)sc1C(=O)N[C@H]1CCCNC1 [AZD7762],0.879
4,O=C(/C=C/c1cccnc1)NCCCCC1CCN(C(=O)c2ccccc2)CC1 [FK866],1.26
5,CCc1c2c(nc3ccc(O)cc13)-c1cc3c(c(=O)n1C2)COC(=O)[C@]3(O)CC [SN-38],0.771
6,CCN1CCN(Cc2ccc(Nc3ncc(F)c(-c4cc(F)c5nc(C)n(C(C)C)c5c4)n3)nc2)CC1 [abemaciclib],0.584
7,C=CCn1c(=O)c2cnc(Nc3ccc(N4CCN(C)CC4)cc3)nc2n1-c1cccc(C(C)(C)O)n1 [adavosertib],0.913

# Same assay, conditions: 0.00025 µM; days in culture: 260
row,Compound,CTG-3D luminescence at 96 h
1,CC(C)(C(=O)NCC(F)(F)C(F)(F)F)C(=O)N[C@@H]1C(=O)Nc2ccccc2-c2ccccc21,1.03
2,CCN(c1cc(C#CCN2CCOCC2)cc(C(=O)NCc2c(C)cc(C)[nH]c2=O)c1C)[C@H]1CC[C@H](N(C)CCOC)CC1,1.19
3,NC(=O)Nc1cc(-c2cccc(F)c2)sc1C(=O)N[C@H]1CCCNC1 [AZD7762],1.02
4,O=C(/C=C/c1cccnc1)NCCCCC1CCN(C(=O)c2ccccc2)CC1 [FK866],0.894
5,CCc1c2c(nc3ccc(O)cc13)-c1cc3c(c(=O)n1C2)COC(=O)[C@]3(O)CC [SN-38],1
6,CCN1CCN(Cc2ccc(Nc3ncc(F)c(-c4cc(F)c5nc(C)n(C(C)C)c5c4)n3)nc2)CC1 [abemaciclib],1.22
7,C=CCn1c(=O)c2cnc(Nc3ccc(N4CCN(C)CC4)cc3)nc2n1-c1cccc(C(C)(C)O)n1 [adavosertib],1.31

# Same assay, conditions: 0.00025 µM; days in culture: 269
row,Compound,CTG-3D luminescence at 96 h
1,CC(C)(C(=O)NCC(F)(F)C(F)(F)F)C(=O)N[C@@H]1C(=O)Nc2ccccc2-c2ccccc21,1.61
2,CCN(c1cc(C#CCN2CCOCC2)cc(C(=O)NCc2c(C)cc(C)[nH]c2=O)c1C)[C@H]1CC[C@H](N(C)CCOC)CC1,1.57
3,NC(=O)Nc1cc(-c2cccc(F)c2)sc1C(=O)N[C@H]1CCCNC1 [AZD7762],1.84
4,O=C(/C=C/c1cccnc1)NCCCCC1CCN(C(=O)c2ccccc2)CC1 [FK866],1.61
5,CCc1c2c(nc3ccc(O)cc13)-c1cc3c(c(=O)n1C2)COC(=O)[C@]3(O)CC [SN-38],1.63
6,CCN1CCN(Cc2ccc(Nc3ncc(F)c(-c4cc(F)c5nc(C)n(C(C)C)c5c4)n3)nc2)CC1 [abemaciclib],1.73
7,C=CCn1c(=O)c2cnc(Nc3ccc(N4CCN(C)CC4)cc3)nc2n1-c1cccc(C(C)(C)O)n1 [adavosertib],1.7

# Same assay, conditions: 0.00025 µM; days in culture: 327
row,Compound,CTG-3D luminescence at 96 h
1,CC(C)(C(=O)NCC(F)(F)C(F)(F)F)C(=O)N[C@@H]1C(=O)Nc2ccccc2-c2ccccc21,1.27
2,CCN(c1cc(C#CCN2CCOCC2)cc(C(=O)NCc2c(C)cc(C)[nH]c2=O)c1C)[C@H]1CC[C@H](N(C)CCOC)CC1,1.96
3,NC(=O)Nc1cc(-c2cccc(F)c2)sc1C(=O)N[C@H]1CCCNC1 [AZD7762],1.77
4,O=C(/C=C/c1cccnc1)NCCCCC1CCN(C(=O)c2ccccc2)CC1 [FK866],0.495
5,CCc1c2c(nc3ccc(O)cc13)-c1cc3c(c(=O)n1C2)COC(=O)[C@]3(O)CC [SN-38],1.61
6,CCN1CCN(Cc2ccc(Nc3ncc(F)c(-c4cc(F)c5nc(C)n(C(C)C)c5c4)n3)nc2)CC1 [abemaciclib],1.41
7,C=CCn1c(=O)c2cnc(Nc3ccc(N4CCN(C)CC4)cc3)nc2n1-c1cccc(C(C)(C)O)n1 [adavosertib],1.49

# Same assay, conditions: 0.00025 µM; days in culture: 346
row,Compound,CTG-3D luminescence at 96 h
1,CC(C)(C(=O)NCC(F)(F)C(F)(F)F)C(=O)N[C@@H]1C(=O)Nc2ccccc2-c2ccccc21,1.31
2,CCN(c1cc(C#CCN2CCOCC2)cc(C(=O)NCc2c(C)cc(C)[nH]c2=O)c1C)[C@H]1CC[C@H](N(C)CCOC)CC1,1.33
3,NC(=O)Nc1cc(-c2cccc(F)c2)sc1C(=O)N[C@H]1CCCNC1 [AZD7762],1.49
4,O=C(/C=C/c1cccnc1)NCCCCC1CCN(C(=O)c2ccccc2)CC1 [FK866],1.28
5,CCc1c2c(nc3ccc(O)cc13)-c1cc3c(c(=O)n1C2)COC(=O)[C@]3(O)CC [SN-38],1.2
6,CCN1CCN(Cc2ccc(Nc3ncc(F)c(-c4cc(F)c5nc(C)n(C(C)C)c5c4)n3)nc2)CC1 [abemaciclib],1.37
7,C=CCn1c(=O)c2cnc(Nc3ccc(N4CCN(C)CC4)cc3)nc2n1-c1cccc(C(C)(C)O)n1 [adavosertib],1.34

# Same assay, conditions: 0.00025 µM; days in culture: 364
row,Compound,CTG-3D luminescence at 96 h
1,CC(C)(C(=O)NCC(F)(F)C(F)(F)F)C(=O)N[C@@H]1C(=O)Nc2ccccc2-c2ccccc21,1.25
2,CCN(c1cc(C#CCN2CCOCC2)cc(C(=O)NCc2c(C)cc(C)[nH]c2=O)c1C)[C@H]1CC[C@H](N(C)CCOC)CC1,1.34
3,NC(=O)Nc1cc(-c2cccc(F)c2)sc1C(=O)N[C@H]1CCCNC1 [AZD7762],1.16
4,O=C(/C=C/c1cccnc1)NCCCCC1CCN(C(=O)c2ccccc2)CC1 [FK866],1.03
5,CCc1c2c(nc3ccc(O)cc13)-c1cc3c(c(=O)n1C2)COC(=O)[C@]3(O)CC [SN-38],0.978
6,CCN1CCN(Cc2ccc(Nc3ncc(F)c(-c4cc(F)c5nc(C)n(C(C)C)c5c4)n3)nc2)CC1 [abemaciclib],1.1
7,C=CCn1c(=O)c2cnc(Nc3ccc(N4CCN(C)CC4)cc3)nc2n1-c1cccc(C(C)(C)O)n1 [adavosertib],1.15

# Same assay, conditions: 0.005 µM; days in culture: 240
row,Compound,CTG-3D luminescence at 96 h
1,CC(C)(C(=O)NCC(F)(F)C(F)(F)F)C(=O)N[C@@H]1C(=O)Nc2ccccc2-c2ccccc21,0.87
2,CCN(c1cc(C#CCN2CCOCC2)cc(C(=O)NCc2c(C)cc(C)[nH]c2=O)c1C)[C@H]1CC[C@H](N(C)CCOC)CC1,1.34
3,NC(=O)Nc1cc(-c2cccc(F)c2)sc1C(=O)N[C@H]1CCCNC1 [AZD7762],1.07
4,O=C(/C=C/c1cccnc1)NCCCCC1CCN(C(=O)c2ccccc2)CC1 [FK866],0.813
5,CCc1c2c(nc3ccc(O)cc13)-c1cc3c(c(=O)n1C2)COC(=O)[C@]3(O)CC [SN-38],0.767
6,CCN1CCN(Cc2ccc(Nc3ncc(F)c(-c4cc(F)c5nc(C)n(C(C)C)c5c4)n3)nc2)CC1 [abemaciclib],0.704
7,C=CCn1c(=O)c2cnc(Nc3ccc(N4CCN(C)CC4)cc3)nc2n1-c1cccc(C(C)(C)O)n1 [adavosertib],1.22

# Same assay, conditions: 0.005 µM; days in culture: 260
row,Compound,CTG-3D luminescence at 96 h
1,CC(C)(C(=O)NCC(F)(F)C(F)(F)F)C(=O)N[C@@H]1C(=O)Nc2ccccc2-c2ccccc21,1.58
2,CCN(c1cc(C#CCN2CCOCC2)cc(C(=O)NCc2c(C)cc(C)[nH]c2=O)c1C)[C@H]1CC[C@H](N(C)CCOC)CC1,2.11
3,NC(=O)Nc1cc(-c2cccc(F)c2)sc1C(=O)N[C@H]1CCCNC1 [AZD7762],1.44
4,O=C(/C=C/c1cccnc1)NCCCCC1CCN(C(=O)c2ccccc2)CC1 [FK866],0.497
5,CCc1c2c(nc3ccc(O)cc13)-c1cc3c(c(=O)n1C2)COC(=O)[C@]3(O)CC [SN-38],1.24
6,CCN1CCN(Cc2ccc(Nc3ncc(F)c(-c4cc(F)c5nc(C)n(C(C)C)c5c4)n3)nc2)CC1 [abemaciclib],1.6
7,C=CCn1c(=O)c2cnc(Nc3ccc(N4CCN(C)CC4)cc3)nc2n1-c1cccc(C(C)(C)O)n1 [adavosertib],2.32

# Same assay, conditions: 0.005 µM; days in culture: 269
row,Compound,CTG-3D luminescence at 96 h
1,CC(C)(C(=O)NCC(F)(F)C(F)(F)F)C(=O)N[C@@H]1C(=O)Nc2ccccc2-c2ccccc21,1.38
2,CCN(c1cc(C#CCN2CCOCC2)cc(C(=O)NCc2c(C)cc(C)[nH]c2=O)c1C)[C@H]1CC[C@H](N(C)CCOC)CC1,1.22
3,NC(=O)Nc1cc(-c2cccc(F)c2)sc1C(=O)N[C@H]1CCCNC1 [AZD7762],1.41
4,O=C(/C=C/c1cccnc1)NCCCCC1CCN(C(=O)c2ccccc2)CC1 [FK866],1.1
5,CCc1c2c(nc3ccc(O)cc13)-c1cc3c(c(=O)n1C2)COC(=O)[C@]3(O)CC [SN-38],1.32
6,CCN1CCN(Cc2ccc(Nc3ncc(F)c(-c4cc(F)c5nc(C)n(C(C)C)c5c4)n3)nc2)CC1 [abemaciclib],1.69
7,C=CCn1c(=O)c2cnc(Nc3ccc(N4CCN(C)CC4)cc3)nc2n1-c1cccc(C(C)(C)O)n1 [adavosertib],1.59
